# From patent publication US20230113944A1, “COMPOSITIONS AND METHODS FOR THE TREATMENT OF NEURODEGENERATIVE DISEASES” (priority 2020, published 2023)
# Entries after “also recorded” stand apart in the source; their conditions may differ.
# Tested on: not listed separately
# Experiment: Parallel artificial membrane permeability (IAM column) prediction of CNS permeability
# Format: in vitro ADME
# Conditions: not given
# Protocol: To predict the potential for brain permeability, a Regis Technologies analytical column connected to an Agilent HPLC system (Infinity 1260 quaternary pump and multiple wavelength detector; 1200 autosampler) was used. An IAM.PC.DD column was (4.6 mm i.d.×10 cm, particle size 5 μm; pore size 300 Å) conditioned with 20 column volumes of mobile phase or until a stable line was achieved. A mobile phase with a consistent flow rate of 1 mL/min was used comprising 100 mM Na2PO4 (solvent A) and acetonitrile (solvent B); compounds were eluted using a gradient (min/% B: 0/30, 10/60, 11/30, 15/30). Detector settings were 220, 250 and 280 nm and acquisition time was 15 min. The autosampler injected 10 μL of compound at 2 mM final, diluted from 10 mM in DMSO in 70:30 (water:acetonitrile). After elution, compound retention and void volume times were obtained from the chromatogram. The IAM capacity factor: (KIAM) was calculated using the equation: […]
# where tr is the retention time of a compound and t0 is the void volume time of the column. To predict CNS permeability, we used the correlation described by the formula below.
row,SMILES,CNS perm (PAMPA)
1,CN1c2ccc(OC(=O)Nc3ccc(OC(F)(F)F)cc3)cc2[C@]2(C)CCO[C@H]12 [Compound 4],0.7
2,COc1cccc(NC(=O)Oc2ccc3c(c2)[C@]2(C)CCO[C@@H]2N3C)c1 [Compound 3],2.3
3,CN1c2ccc(OC(=O)NC3CCCCC3)cc2[C@]2(C)CCO[C@H]12 [Compound 5],2.8
4,CC[C@@H]1C[C@@]2(C)c3cc(OC(=O)Nc4ccccc4)ccc3N(C)[C@H]2O1 [Compound 10],3.2
5,COc1cc(NC(=O)Oc2ccc3c(c2)[C@]2(C)CCO[C@@H]2N3C)cc(OC)c1 [Compound 7],1.8
6,"CN1c2ccc(OC(=O)Nc3ccccc3)cc2[C@]2(C)CCO[C@H]12 [Compound 1, phensvenine]",3.2
7,CN1c2ccc(OC(=O)Nc3ccccn3)cc2[C@]2(C)CCO[C@H]12 [Compound 12],1.9
8,Cc1cc(C)cc(NC(=O)Oc2ccc3c(c2)[C@]2(C)CCO[C@@H]2N3C)c1 [Compound 6],3.1
9,CC[C@H]1C[C@@]2(C)c3cc(OC(=O)Nc4ccccc4)ccc3N(C)[C@H]2O1 [Compound 9],3
10,COc1ccc(NC(=O)Oc2ccc3c(c2)[C@]2(C)CCO[C@@H]2N3C)cc1 [Compound 2],2
11,CN1c2ccc(OC(=O)Nc3cncc(F)c3)cc2[C@]2(C)CCO[C@H]12 [Compound 14],2

# Same assay, conditions: PAMPA, 2 mM
row,SMILES,CNS perm (PAMPA)
1,CN1c2ccc(OC(=O)Nc3ccc(C(F)(F)F)cc3)cc2[C@]2(C)CCO[C@H]12 [Compound 15],2.2

# Target: T1, human nSMase2 (Homo sapiens, UniProt Q9NY59)
# T1 construct: expressed in transfected cells; host or cells: HEK293T
# T1 sequence (Q9NY59 1-655): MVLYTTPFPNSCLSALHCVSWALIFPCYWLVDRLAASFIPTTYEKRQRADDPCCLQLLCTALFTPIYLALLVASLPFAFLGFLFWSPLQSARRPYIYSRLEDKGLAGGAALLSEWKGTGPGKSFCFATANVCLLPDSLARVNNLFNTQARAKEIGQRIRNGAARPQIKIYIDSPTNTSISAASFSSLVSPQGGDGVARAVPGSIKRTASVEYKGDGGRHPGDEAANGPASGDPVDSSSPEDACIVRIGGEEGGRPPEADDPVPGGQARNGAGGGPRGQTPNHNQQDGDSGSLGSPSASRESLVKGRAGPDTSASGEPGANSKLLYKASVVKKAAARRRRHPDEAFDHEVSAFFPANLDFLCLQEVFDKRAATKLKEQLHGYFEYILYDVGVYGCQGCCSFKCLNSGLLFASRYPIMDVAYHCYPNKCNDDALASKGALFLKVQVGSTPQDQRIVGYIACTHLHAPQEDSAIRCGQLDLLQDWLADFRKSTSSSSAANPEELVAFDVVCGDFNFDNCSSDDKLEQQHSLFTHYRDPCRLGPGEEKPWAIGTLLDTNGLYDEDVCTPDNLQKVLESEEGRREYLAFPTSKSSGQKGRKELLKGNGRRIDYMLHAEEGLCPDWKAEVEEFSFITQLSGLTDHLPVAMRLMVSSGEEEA
# Experiment: biochemical
# Format: biochemical
# Conditions: not given
# Protocol: To evaluate nSMase2 inhibitory activity of tested compounds, cell lysates from HEK293T cells over-expressing human nSMase2 were used as the source of the nSMase2 enzyme. The Amplex Red Sphingomyelinase activity assay was performed according to previously a described protocol^1. Confluent cells were washed with PBS and harvested with lysis buffer [100 mM Tris-HCl pH 7.5, 100 mM sucrose, 100 μM PMSF, 1× protease inhibitor cocktail] using a cell scraper, and then sonicated 3 times on ice for 10 sec and centrifuged at 10,000×g for 10 min at 4° C. to remove remaining cell debris. An initial screening of a compound library was performed using 50 μM compound concentrations. In secondary testing, selected compounds were analyzed at multiple compound concentrations and plotted as a percentage of DMSO control; dose-response curves were generated to determine IC50s using GraphPad Prism software (GraphPad Software, La Jolla Calif.). […] Activity of the enzyme in the presence of the different concentrations of the inhibitors was plotted against substrate concentration and the maximal rate of the enzymatic reaction (Vmax) and Michaelis constant were calculated using GraphPad Prism.
row,SMILES,nSMase2 inhibitory activity
1,"CN1c2ccc(OC(=O)Nc3ccccc3)cc2[C@]2(C)CCO[C@H]12 [Compound 1, phensvenine]",has nSMase2 inhibitory activity; also recorded: weak nSMase2 inhibition

# Same assay, conditions: IC50 (nSMase2) Groups: A-D
row,SMILES,IC50 [nM]
1,COc1cc(NC(=O)Oc2ccc3c(c2)[C@]2(C)CCO[C@@H]2N3C)cc(OC)c1 [drawing 38],1000 to 10000
2,C=CC[C@@]12CCN(S(=O)(=O)c3ccc(C)cc3)[C@@H]1Nc1ccc(OC)nc12,> 50000
3,CN1c2ccc(O)nc2[C@]2(C)CCO[C@H]12,1000 to 10000
4,CN1c2ccc(OC(=O)Nc3ccccn3)cc2[C@]2(C)CCO[C@H]12 [drawing 45],< 1000
5,C=CC[C@@]12CCO[C@@H]1Nc1ccc(OC)nc12,> 50000
6,COc1ccc2c(n1)[C@]1(C)CCN(S(=O)(=O)c3ccc(C)cc3)[C@@H]1N2,10000 to 50000
7,C[C@@]12CCO[C@@H]1Nc1ccc(OCc3ccccc3)nc12,> 50000
8,COc1nccc2c1N[C@H]1OCC[C@@]21C,> 50000
9,COc1cccc(NC(=O)Oc2ccc3c(c2)[C@]2(C)CCO[C@@H]2N3C)c1 [drawing 34],1000 to 10000
10,CN1c2ccc(OC(=O)Nc3ccc(C(F)(F)F)cc3)cc2[C@]2(C)CCO[C@H]12 [drawing 64],1000 to 10000
11,CC[C@@H]1C[C@@]2(C)c3cc(OC(=O)Nc4ccccc4)ccc3N(C)[C@H]2O1 [drawing 43],1000 to 10000
12,COc1ccc(NC(=O)Oc2ccc3c(c2)[C@]2(C)CCO[C@@H]2N3C)cc1 [drawing 33],1000 to 10000
13,C[C@@]12CCO[C@@H]1Nc1ncccc12,> 50000

# Same assay, conditions: IC50 nSMase2
row,SMILES,IC50 [nM]
1,CN1c2ccc(OC(=O)Nc3ccc(OC(F)(F)F)cc3)cc2[C@]2(C)CCO[C@H]12 [Compound 4],2700
2,CN1c2ccc(OC(=O)NC3CCCCC3)cc2[C@]2(C)CCO[C@H]12 [Compound 5],3400
3,COc1cc(NC(=O)Oc2ccc3c(c2)[C@]2(C)CCO[C@@H]2N3C)cc(OC)c1 [Compound 7],2000
4,"CN1c2ccc(OC(=O)Nc3ccccc3)cc2[C@]2(C)CCO[C@H]12 [Compound 1, phensvenine]",> 1000
5,CN1c2ccc(OC(=O)Nc3ccccn3)cc2[C@]2(C)CCO[C@H]12 [Compound 12],800
6,Cc1cc(C)cc(NC(=O)Oc2ccc3c(c2)[C@]2(C)CCO[C@@H]2N3C)c1 [Compound 6],3600
7,CC[C@H]1C[C@@]2(C)c3cc(OC(=O)Nc4ccccc4)ccc3N(C)[C@H]2O1 [Compound 9],> 5000
8,COc1ccc(NC(=O)Oc2ccc3c(c2)[C@]2(C)CCO[C@@H]2N3C)cc1 [Compound 2],700
9,CN1c2ccc(OC(=O)Nc3cncc(F)c3)cc2[C@]2(C)CCO[C@H]12 [Compound 14],900

# Target: T2, Human AChE (Homo sapiens, UniProt P22303)
# T2 construct: purchased Sigma
# T2 sequence (P22303 32-614): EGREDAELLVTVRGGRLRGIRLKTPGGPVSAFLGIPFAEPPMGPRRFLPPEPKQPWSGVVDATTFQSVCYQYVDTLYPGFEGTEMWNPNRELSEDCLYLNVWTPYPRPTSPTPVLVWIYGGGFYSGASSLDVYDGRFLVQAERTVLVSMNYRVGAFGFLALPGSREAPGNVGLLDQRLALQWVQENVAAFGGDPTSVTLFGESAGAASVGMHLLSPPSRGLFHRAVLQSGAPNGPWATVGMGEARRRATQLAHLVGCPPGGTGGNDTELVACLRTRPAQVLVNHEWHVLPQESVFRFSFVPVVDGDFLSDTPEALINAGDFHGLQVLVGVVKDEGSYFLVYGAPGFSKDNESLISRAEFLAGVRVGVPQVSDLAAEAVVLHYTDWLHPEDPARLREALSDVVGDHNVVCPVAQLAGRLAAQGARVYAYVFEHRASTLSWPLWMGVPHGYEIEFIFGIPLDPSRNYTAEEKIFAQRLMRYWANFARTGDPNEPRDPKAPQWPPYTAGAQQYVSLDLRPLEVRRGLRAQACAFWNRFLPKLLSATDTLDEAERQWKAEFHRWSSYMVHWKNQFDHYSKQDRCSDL
# Experiment: biochemical
# Conditions: AChE IC50
# Protocol: This acetylcholinesterase (AChE) assay is based on an Amplex Red assay kit (Thermo Fisher A12217). Human AChE (Sigma) was used. Briefly, 5 μL of compounds at the desired concentration were loaded into wells of a 384-well plate. Then, 5 μl of human AChE (30 mU/mL) was loaded into each well, followed by the addition of 10 μL of the working solution which contains 400 μM Amplex Red reagent, 2 U/mL HRP, 0.2 U/mL choline oxidase, and 100 μM acetylcholine. The reaction was monitored for 60 minutes and read at 530/590 nm. AChE IC50 was determined by plotting AChE activity as a percentage of DMSO control using GraphPad Prism software.
row,SMILES,IC50 [nM]
1,"CN1c2ccc(OC(=O)Nc3ccccc3)cc2[C@]2(C)CCO[C@H]12 [Compound 1, phensvenine]",500

# Same assay, conditions: AChE activity
row,SMILES,IC50 [nM]
1,COc1cc(NC(=O)Oc2ccc3c(c2)[C@]2(C)CCO[C@@H]2N3C)cc(OC)c1 [drawing 38],< 500
2,CN1c2ccc(OC(=O)Nc3ccccn3)cc2[C@]2(C)CCO[C@H]12 [drawing 45],> 5000
3,COc1cccc(NC(=O)Oc2ccc3c(c2)[C@]2(C)CCO[C@@H]2N3C)c1 [drawing 34],< 500
4,CN1c2ccc(OC(=O)Nc3ccc(C(F)(F)F)cc3)cc2[C@]2(C)CCO[C@H]12 [drawing 64],> 5000
5,CC[C@@H]1C[C@@]2(C)c3cc(OC(=O)Nc4ccccc4)ccc3N(C)[C@H]2O1 [drawing 43],2500 to 5000
6,COc1ccc(NC(=O)Oc2ccc3c(c2)[C@]2(C)CCO[C@@H]2N3C)cc1 [drawing 33],2500 to 5000

# Same assay, conditions: IC50 AChE
row,SMILES,IC50 [nM]
1,CN1c2ccc(OC(=O)Nc3ccc(OC(F)(F)F)cc3)cc2[C@]2(C)CCO[C@H]12 [Compound 4],> 5000
2,COc1cccc(NC(=O)Oc2ccc3c(c2)[C@]2(C)CCO[C@@H]2N3C)c1 [Compound 3],100
3,CN1c2ccc(OC(=O)NC3CCCCC3)cc2[C@]2(C)CCO[C@H]12 [Compound 5],300
4,CC[C@@H]1C[C@@]2(C)c3cc(OC(=O)Nc4ccccc4)ccc3N(C)[C@H]2O1 [Compound 10],3700
5,COc1cc(NC(=O)Oc2ccc3c(c2)[C@]2(C)CCO[C@@H]2N3C)cc(OC)c1 [Compound 7],300
6,CN1c2ccc(OC(=O)Nc3ccccn3)cc2[C@]2(C)CCO[C@H]12 [Compound 12],> 5000
7,Cc1cc(C)cc(NC(=O)Oc2ccc3c(c2)[C@]2(C)CCO[C@@H]2N3C)c1 [Compound 6],200
8,CC[C@H]1C[C@@]2(C)c3cc(OC(=O)Nc4ccccc4)ccc3N(C)[C@H]2O1 [Compound 9],2500
9,COc1ccc(NC(=O)Oc2ccc3c(c2)[C@]2(C)CCO[C@@H]2N3C)cc1 [Compound 2],3600
10,CN1c2ccc(OC(=O)Nc3ccc(C(F)(F)F)cc3)cc2[C@]2(C)CCO[C@H]12 [Compound 15],> 5000
11,CN1c2ccc(OC(=O)Nc3cncc(F)c3)cc2[C@]2(C)CCO[C@H]12 [Compound 14],> 5000

# Target: human serum albumin (HSA) (Homo sapiens, UniProt P02768)
# Sequence (P02768 25-609): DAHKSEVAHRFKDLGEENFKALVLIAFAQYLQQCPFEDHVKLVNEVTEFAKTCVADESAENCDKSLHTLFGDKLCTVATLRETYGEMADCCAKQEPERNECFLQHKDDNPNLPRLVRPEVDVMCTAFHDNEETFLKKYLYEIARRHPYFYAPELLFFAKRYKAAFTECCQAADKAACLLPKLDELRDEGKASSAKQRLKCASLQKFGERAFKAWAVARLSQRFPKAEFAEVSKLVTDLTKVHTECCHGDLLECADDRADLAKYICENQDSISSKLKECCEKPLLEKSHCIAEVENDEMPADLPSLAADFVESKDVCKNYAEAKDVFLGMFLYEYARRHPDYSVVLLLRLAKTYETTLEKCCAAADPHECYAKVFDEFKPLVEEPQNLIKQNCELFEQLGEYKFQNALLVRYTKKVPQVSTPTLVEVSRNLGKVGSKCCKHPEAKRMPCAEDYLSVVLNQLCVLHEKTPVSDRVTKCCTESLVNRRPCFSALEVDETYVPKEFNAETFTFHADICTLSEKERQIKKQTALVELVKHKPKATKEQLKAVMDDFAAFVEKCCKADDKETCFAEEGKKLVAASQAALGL
# Experiment: Binding to human serum albumin (HSA)
# Conditions: not given
row,SMILES,degree of binding to human serum albumin (HSA)
1,CN1c2ccc(OC(=O)Nc3ccccn3)cc2[C@]2(C)CCO[C@H]12 [Compound 12],low degree of binding

# Same assay, conditions: human, human serum albumin
row,SMILES,fraction unbound
1,CN1c2ccc(OC(=O)Nc3ccc(OC(F)(F)F)cc3)cc2[C@]2(C)CCO[C@H]12 [Compound 4],0.33
2,COc1cccc(NC(=O)Oc2ccc3c(c2)[C@]2(C)CCO[C@@H]2N3C)c1 [Compound 3],0.1
3,CN1c2ccc(OC(=O)NC3CCCCC3)cc2[C@]2(C)CCO[C@H]12 [Compound 5],0.17
4,CC[C@@H]1C[C@@]2(C)c3cc(OC(=O)Nc4ccccc4)ccc3N(C)[C@H]2O1 [Compound 10],0.05
5,COc1cc(NC(=O)Oc2ccc3c(c2)[C@]2(C)CCO[C@@H]2N3C)cc(OC)c1 [Compound 7],0.09
6,"CN1c2ccc(OC(=O)Nc3ccccc3)cc2[C@]2(C)CCO[C@H]12 [Compound 1, phensvenine]",0.12
7,CN1c2ccc(OC(=O)Nc3ccccn3)cc2[C@]2(C)CCO[C@H]12 [Compound 12],0.28
8,Cc1cc(C)cc(NC(=O)Oc2ccc3c(c2)[C@]2(C)CCO[C@@H]2N3C)c1 [Compound 6],0.04
9,CC[C@H]1C[C@@]2(C)c3cc(OC(=O)Nc4ccccc4)ccc3N(C)[C@H]2O1 [Compound 9],0.07
10,COc1ccc(NC(=O)Oc2ccc3c(c2)[C@]2(C)CCO[C@@H]2N3C)cc1 [Compound 2],0.15
11,CN1c2ccc(OC(=O)Nc3ccc(C(F)(F)F)cc3)cc2[C@]2(C)CCO[C@H]12 [Compound 15],0.07
12,CN1c2ccc(OC(=O)Nc3cncc(F)c3)cc2[C@]2(C)CCO[C@H]12 [Compound 14],0.21
